Data as given in patent US10487112B2, “Pediococcus acidilactici derived antimicrobial hexapeptide and preparation method thereof” (Jiangnan University, priority 2016, dated 2019).
Where two headings read alike, the source gives them in different places. No end group written: not given here.

Tests used:
[1] = system: Escherichia coli; experiment: Stability of lactein R16 in pH (antimicrobial experiment after pH treatment); assay type: physicochemical
Protocol: 10 parts of purified active substance lactein R16 with the concentration of 100 mg·mL^−1 is selected, the pH of the lactein R16 is respectively regulated to be 1.0-10.0 by using 1.0 mol·L^−1 NaOH and 1.0 mol·L^−1 HCl, the lactein R16 is treated in a 37° C. water bath kettle for 2 h, then, the pH of the lactein R16 is regulated to be 4.5, and an antimicrobial experiment is performed to observe the inhibition of the lactein R16 to Escherichia coli. The result is shown as FIG. 2.
The antimicrobial activity of the lactein R16 is reduced step by step when the pH is 6.0-8.0, the reduction tendency is slow, and the residual activity is maintained at about 75%, which proves that the stability of the lactein R16 is reduced to a certain extent under such pH condition, but the pH has little influences on the stability of the lactein R16.

[2] = system: Escherichia coli; experiment: Thermal stability of lactein R16 (antimicrobial experiment after heat treatment); assay type: physicochemical
Protocol: 8 parts of purified active substance lactein R16 with the concentration of 100 mg·mL^−1 is selected and is respectively treated at 40° C., 50° C., 60° C., 70° C., 80° C., 90° C. and 100° C. for 30 min and is subjected to high-pressure sterilization at 121° C. for 15 min, and an antimicrobial experiment is performed to observe the inhibition of the lactein R16 to Escherichia coli. The result is shown as FIG. 3.
The antimicrobial activity of the lactein R16 is lost by 59.98% after the lactein R16 is treated at 121° C. for 15 min.

[3] = system: Escherichia coli JM109; experiment: Antimicrobial spectrum, oxford-cup method; assay type: cell-based; set-up: key to Antimicrobial level: “+++” represents for strong inhibition; “++” represents for relatively strong inhibition; “+” represents for inhibition; “−” represents for no inhibition; details: 100 mg·mL^−1, oxford-cup
Protocol: (§1) 8 parts of purified active substance lactein R16 with the concentration of 100 mg·mL^−1 is selected, and an inhibiting effect of the lactein R16 on Escherichia coli, Listeria monocytogenes and Staphylococcus aureus is detected by using an oxford-cup method.

[4] = system: Escherichia coli K99; experiment: Antimicrobial spectrum, oxford-cup method; assay type: cell-based; set-up: key to Antimicrobial level: “+++” represents for strong inhibition; “++” represents for relatively strong inhibition; “+” represents for inhibition; “−” represents for no inhibition; details: 100 mg·mL^−1, oxford-cup
Protocol: as §1

[5] = system: Listeria monocytogenes CMCC(B)54002; experiment: Antimicrobial spectrum, oxford-cup method; assay type: cell-based; set-up: key to Antimicrobial level: “+++” represents for strong inhibition; “++” represents for relatively strong inhibition; “+” represents for inhibition; “−” represents for no inhibition; details: 100 mg·mL^−1, oxford-cup
Protocol: as §1

[6] = system: Staphylococcus aureus ATCC 6538; experiment: Antimicrobial spectrum, oxford-cup method; assay type: cell-based; set-up: key to Antimicrobial level: “+++” represents for strong inhibition; “++” represents for relatively strong inhibition; “+” represents for inhibition; “−” represents for no inhibition; details: 100 mg·mL^−1, oxford-cup
Protocol: as §1

[7] = system: Escherichia coli ATCC 25922; experiment: Antimicrobial spectrum, oxford-cup method; assay type: cell-based; set-up: key: “+++” represents for strong inhibition; “++” represents for relatively strong inhibition; “+” represents for inhibition; “−” represents for no inhibition; details: 100 mg·mL^−1, oxford-cup
Protocol: as §1

[8] = system: Staphylococcus aureus ATCC 6538; assay type: cell-based
Protocol: (§2) The antimicrobial activity is detected by adopting a minimum inhibitory concentration (MIC) method, and the operation is as follows:
(§3) (a) inoculating the bacteria into an LB liquid culture medium according to the inoculation amount of 1%, and carrying out shaking culture over the night at 37° C. and 200r·min^−1;
(§4) (b) inoculating the culture solution into 20 mL of the LB liquid culture medium according to the inoculation amount of 1%, and carrying out shaking culture at 37° C. and 200r·min′ until the OD600 is equal to about 0.5; […]
(§5) (e) adding 450 μL of the prepared bacterial suspension into an aseptic tissue culture plate, and then, respectively adding 50 μL of antimicrobial active substance diluents with corresponding concentrations to ensure that the concentrations of to-be-measured antimicrobial active substances are respectively 25.6, 12.8, 6.4, 3.2, 1.6, 0.8, 0.4, 0.2 and 0.1 mg·mL^−1; and carrying out culture in a 37° C. constant-temperature incubator for 18-24 h by taking 500 μL of the bacterial suspension as a positive control and 500 μL of the LB liquid culture medium as a negative control; and […]

[9] = system: Listeria monocytogenes CMCC(B)54002; experiment: Minimum inhibitory concentration (MIC) method; assay type: cell-based; details: LB medium, 37° C., 18-24 h
Protocol: as §2, §3, §4, §5

[10] = system: Bacillus subtilis; experiment: Influences on probiotics, viable count; assay type: cell-based; details: MRS medium with 6.4 mg·mL^−1, 37° C.
Protocol: (§6) Each of probiotics is subjected to two-stage activation, is inoculated into an MRS culture medium containing 6.4 mg·mL^−1 of antimicrobial active substances according to the inoculation amount of 1% and is cultured at the constant temperature of 37° C. for 24 h in contrast with the probiotics inoculated into the MRS culture medium. Coated plate counting is performed by using a viable count method. The result is shown as FIG. 4.
(§7) A microecological preparation used as one of green feed additives is widely applied to the feed, wherein a composite microecological preparation prepared from Saccharomycetes, Lactic Acid Bacteria and Bacillus is more common, not only can degrade and soften crude fibers and increase the content of proteins, but also can improve the palatability of the feed, regulate the intestinal microecological balance of the animals and promote digestive absorption and growth. Saccharomyces cerevisiae, Pediococcus pentosaceus, Enterococcus faecium, Lactobacillus plantarum and Bacillus subtilis are selected as a study object to study the influences of the lactein R16 on Saccharomyces cerevisiae, Pediococcus pentosaceus, Enterococcus faecium, Lactobacillus plantarum and Bacillus subtilis, and the result is shown as FIG. 4.

[11] = system: Enterococcus faecium; experiment: Influences on probiotics, viable count; assay type: cell-based; details: MRS medium with 6.4 mg·mL^−1, 37° C.
Protocol: as §6, §7

[12] = system: Lactobacillus plantarum; experiment: Influences on probiotics, viable count; assay type: cell-based; details: MRS medium with 6.4 mg·mL^−1, 37° C., 24 h
Protocol: as §6, §7

[13] = system: Pediococcus pentosaceus; experiment: Influences on probiotics, viable count; assay type: cell-based; details: MRS medium with 6.4 mg·mL^−1, 37° C., 24 h
Protocol: as §6, §7

[14] = system: Saccharomyces cerevisiae; experiment: Influences on probiotics, viable count; assay type: cell-based; details: MRS medium with 6.4 mg·mL^−1, 37° C., 24 h
Protocol: as §6, §7

[15] = Antioxidant capability, clearing hydrogen peroxide
Description: (§8) The feed contains a certain quantity of unsaturated fat, fatty acid, lipid-soluble vitamin, carotenoid and other lipid-soluble substances, which are easily oxidized in a storage process of the feed, and particularly fat and fatty acid can be oxidized to result in rancidity to generate different compounds such as aldehyde, alcohol, fat and acid which may generate various peculiar smells to seriously affect the palatability of the feed, and some compounds can generate adverse effects for the animals due to certain toxicity. The antioxidant capability of the lactein R16 to hydrogen peroxide, hydroxyl radicals, DPPH.radicals and superoxide anions is shown as FIG. 5.

[16] = Antioxidant capability, clearing hydroxyl radicals
Description: as §8

[17] = Antioxidant capability, clearing DPPH radicals
Description: as §8

[18] = Antioxidant capability, clearing superoxide anions
Description: as §8

[19] = system: Escherichia coli in the soybean meal; experiment: Inhibition of Escherichia coli in fermented soybean meal; assay type: cell-based; details: 48 h; for removal rate: 37° C.
Protocol: (a) crushing soybean meal by using a blade crusher, adding 4 parts (the weight of each part is 40 g) of soybean meal with the serial numbers of group 5, group 6, group 7 and group 8 into a 500 mL fermentation flask, and carrying out sterilization at 105° C. for 10 min;
(b) carrying out fermentation under conditions shown as table 3.
(c) measuring the amount of Escherichia coli according to the natural standard for measuring Escherichia coli in the feed.
The inhibiting effect of the lactein R16 to Escherichia coli in the soybean meal is studied by adding Escherichia coli into the sterilized soybean meal.

Question: What does the source list for ENGEEE [lactein R16, ENGEEE]?
Answer: pH at which the antimicrobial activity reaches the maximum ([1]; 100 mg·mL^−1, pH 1.0-10.0, 37° C. water bath 2 h, then pH 4.5, inhibition of Escherichia coli): 3.0-5.0; residual activity ([1]; pH 6.0-8.0, 37° C. 2 h, inhibition of Escherichia coli): about 75%; pH stability ([1]; summary statement): good; activity retained in the process of pelletizing ([2]; pelletizing at 75-85° C. for 1-2 min): completely retained; thermal stability ([2]; summary statement): good; change of antimicrobial activity ([2]; treated at 40, 50, 60, 70 and 80° C. for 30 min, 100 mg·mL^−1): no obvious changes; antimicrobial activity lost ([2]; treated at 90° C. for 30 min): 21.95%; antimicrobial activity lost ([2]; treated at 100° C. for 30 min): 49.47%; antimicrobial activity lost ([2]; treated at 121° C. for 15 min (high-pressure sterilization)): 59.98%; Antimicrobial level [3]: ++; antimicrobial activity (in words) [3]: relatively strong antimicrobial activity; Antimicrobial level [4]: ++; antimicrobial activity (in words) [4]: relatively strong antimicrobial activity; Antimicrobial level [5]: ++; antimicrobial activity (in words) [5]: relatively strong antimicrobial activity; Antimicrobial level [6]: +++; antimicrobial activity (in words) [6]: strongest; Antimicrobial level [7]: +; MIC ([8]; ATCC 6538): 3400 µg/mL; MIC ([8]; LB medium, 37° C., 18-24 h): 3200 µg/mL; MIC [9]: 6400 µg/mL; total bacterial count after growing for 24 h [10]: about 10^8 CFU·mL^−1; total bacterial count reduced as comparison with contrast ([10]; 24 h): 4.03%; total bacterial count after growing for 24 h [11]: about 10^8 CFU·mL^−1; total bacterial count reduced as comparison with contrast ([11]; 24 h): 6.92%; effect on Lactobacillus plantarum (in words) [12]: a certain effect on proliferating; change of total bacterial count as comparison with contrast [13]: no obvious changes; amount of Saccharomyces cerevisiae increased as comparison with contrast [14]: 24.50%; effect on Saccharomyces cerevisiae (in words) [14]: a certain effect on proliferating; clearance rate [15]: 25.65%; clearance rate [16]: 70.13%; clearance rate [17]: 79.42%; clearance rate [18]: 10.11%; amount of Escherichia coli after fermentation ([19]; 0.512 g in 40 g soybean meal, material-to-liquid ratio 1:0.8, 37° C., 1380·100 g^−1 before fermentation): 123 ·100 g^−1; removal rate ([19]; material-to-liquid ratio 1:0.8, 0.512 g in 40 g soybean meal): 33.44%; removal rate ([19]; material-water ratio 1:0.12, 0.512 g in 40 g soybean meal): 56.64%
